Laboratory results published in paper PMC6071225 (Viruses, 2018).

Experiments:
[1] = tested on: H275Y/S247N 2009 pandemic H1N1 virus; conditions: cited from earlier work
H275Y NA2009 [2] = format: binding, A/California/07/2009 (H1N1) influenza virus
H275Y/I223V NA2009 = format: biochemical, A/California/07/2009 (H1N1) influenza virus
H275Y/S247N NA2009 = format: biochemical, A/California/07/2009 (H1N1) influenza virus
I223V NA2009 [3] = format: binding, A/California/07/2009 (H1N1) influenza virus
I223V NA2009 [4] = format: biochemical, A/California/07/2009 (H1N1) influenza virus
H275Y NA2009 [5] = format: biochemical, A/California/07/2009 (H1N1) influenza virus
S247N NA2009 [6] = format: binding, A/California/07/2009 (H1N1) influenza virus
S247N NA2009 [7] = format: biochemical, A/California/07/2009 (H1N1) influenza virus
[8] = tested on: NA with H275Y mutation, strain A/WSN/1933 (H1N1); conditions: cited from earlier work
[9] = tested on: H275Y/I223V 2009 pandemic H1N1 virus; conditions: cited from earlier work

CCC(CC)O[C@@H]1C=C(C(=O)O)C[C@H](N)[C@H]1NC(C)=O [oseltamivir carboxylate]
enhanced oseltamivir-resistant phenotype compared to the recombinant wt virus [1]: 7000 fold
enthalpy change less favorable than the wt value (H275Y NA2009 [2]): 8.7 kcal/mol
more favorable entropic contribution (referenced to the wt value) (H275Y NA2009 [2]): 6 kcal/mol
Kd (H275Y NA2009 [2]; pH 6.15): 13.2 µM
ΔG (H275Y NA2009 [2]; pH 6.15): -6.7 ± 0.03 kcal/mol
ΔH (H275Y NA2009 [2]; pH 6.15): -2.1 ± 0.04 kcal/mol
−T·ΔS (H275Y NA2009 [2]; pH 6.15): -4.6 ± 0.1 kcal/mol
Fold Ki (H275Y/I223V NA2009): 3900 fold
Ki (H275Y/I223V NA2009): 94 µM
increase in Ki compared to H275Y NA2009 (H275Y/I223V NA2009): more than three-fold
Fold Ki (H275Y/S247N NA2009): 9000 fold
Ki (H275Y/S247N NA2009): 220 µM
increase in Ki compared to the H275Y single mutant (H275Y/S247N NA2009): 8 fold
increase in Ki compared to the S247N single mutant (H275Y/S247N NA2009): 500 fold
less favorable enthalpy change compared to wt (I223V NA2009 [3]): 1.4 kcal/mol
more favorable entropic contribution compared to wt (I223V NA2009 [3]): 0.6 kcal/mol
Kd (I223V NA2009 [3]; pH 6.15): 0.52 ± 0.03 µM
ΔG (I223V NA2009 [3]; pH 6.15): -8.6 ± 0.1 kcal/mol
ΔH (I223V NA2009 [3]; pH 6.15): -9.4 ± 0.1 kcal/mol
−T·ΔS (I223V NA2009 [3]; pH 6.15): 0.9 ± 0.2 kcal/mol
Ki (I223V NA2009 [4]): 0.7 ± 0.1 µM
Ki (H275Y NA2009 [5]): 27 µM
entropic contribution of binding compared to wt (S247N NA2009 [6]): almost unaffected
less favorable enthalpy change compared to wt (S247N NA2009 [6]): 0.4 kcal/mol
Kd (S247N NA2009 [6]; pH 6.15): 0.41 ± 0.02 µM
ΔG (S247N NA2009 [6]; pH 6.15): -8.7 ± 0.03 kcal/mol
ΔH (S247N NA2009 [6]; pH 6.15): -10.4 ± 0.1 kcal/mol
−T·ΔS (S247N NA2009 [6]; pH 6.15): 1.7 ± 0.1 kcal/mol
Fold Ki (S247N NA2009 [7]): 19 fold
Ki (S247N NA2009 [7]): 0.45 ± 0.04 µM
reduction in susceptibility conferred by His to Tyr mutation at position 275 [8]: 750 fold
enhanced oseltamivir-resistant phenotype compared to the recombinant wt virus [9]: 1733 fold

CCC(CC)[C@H](NC(C)=O)[C@@H]1[C@H](O)[C@@H](C(=O)O)C[C@H]1N=C(N)N [peramivir]
reduction in susceptibility conferred by His to Tyr mutation at position 275 [8]: 260 fold
